# Measurements reported in article PMC11446596 (Critical Care Explorations, 2024).
# Like-named read-outs stand apart in the source and are kept apart here.
# Key:
# [1] = median / average of model-predicted half-life; PICU children
# [2] = parameters: species or system human; details: for Trough Vancomycin Concentration achieving AUC24/MIC = 400: regression equation
# [3] = critically ill children; cited from earlier work
# [4] = AUC24 regression equation, 365 troughs, 238 subjects
compound,measurement,setting,value
CN[C@H](CC(C)C)C(=O)N[C@H]1C(=O)N[C@@H](CC(N)=O)C(=O)N[C@H]2C(=O)N[C@H]3C(=O)N[C@H](C(=O)N[C@H](C(=O)O)c4cc(O)cc(O)c4-c4cc3ccc4O)[C@H](O)c3ccc(c(Cl)c3)Oc3cc2cc(c3O[C@@H]2O[C@H](CO)[C@@H](O)[C@H](O)[C@H]2O[C@H]2C[C@](C)(N)[C@H](O)[C@H](C)O2)Oc2ccc(cc2Cl)[C@H]1O [vancomycin],"half-life (model-predicted, terminal)",[1],6 h
same,Trough Vancomycin Concentration achieving AUC24/MIC = 400,"[2]; 15 mg/kg q6h, body weight 10 kg, MIC = 0.5 μg/mL",1.8 µg/mL
same,Trough Vancomycin Concentration achieving AUC24/MIC = 400,"[2]; 15 mg/kg q6h, body weight 10 kg, MIC = 1 μg/mL",7.4 µg/mL
same,Trough Vancomycin Concentration achieving AUC24/MIC = 400,"[2]; 15 mg/kg q6h, body weight 10 kg, MIC = 2 μg/mL",29.9 µg/mL
same,Trough Vancomycin Concentration achieving AUC24/MIC = 400,"[2]; 15 mg/kg q6h, body weight 20 kg, MIC = 0.5 μg/mL",1.7 µg/mL
same,Trough Vancomycin Concentration achieving AUC24/MIC = 400,"[2]; 15 mg/kg q6h, body weight 20 kg, MIC = 1 μg/mL",6.9 µg/mL
same,Trough Vancomycin Concentration achieving AUC24/MIC = 400,"[2]; 15 mg/kg q6h, body weight 20 kg, MIC = 2 μg/mL",28.0 µg/mL
same,Trough Vancomycin Concentration achieving AUC24/MIC = 400,"[2]; 15 mg/kg q6h, body weight 40 kg, MIC = 0.5 μg/mL",1.5 µg/mL
same,Trough Vancomycin Concentration achieving AUC24/MIC = 400,"[2]; 15 mg/kg q6h, body weight 40 kg, MIC = 1 μg/mL",6.1 µg/mL
same,Trough Vancomycin Concentration achieving AUC24/MIC = 400,"[2]; 15 mg/kg q6h, body weight 40 kg, MIC = 2 μg/mL",24.6 µg/mL
same,Trough Vancomycin Concentration achieving AUC24/MIC = 400,"[2]; 15 mg/kg q8h, body weight 10 kg, MIC = 0.5 μg/mL",2.5 µg/mL
same,Trough Vancomycin Concentration achieving AUC24/MIC = 400,"[2]; 15 mg/kg q8h, body weight 10 kg, MIC = 1 μg/mL",10.0 µg/mL
same,Trough Vancomycin Concentration achieving AUC24/MIC = 400,"[2]; 15 mg/kg q8h, body weight 10 kg, MIC = 2 μg/mL",40.7 µg/mL
same,Trough Vancomycin Concentration achieving AUC24/MIC = 400,"[2]; 15 mg/kg q8h, body weight 20 kg, MIC = 0.5 μg/mL",2.3 µg/mL
same,Trough Vancomycin Concentration achieving AUC24/MIC = 400,"[2]; 15 mg/kg q8h, body weight 20 kg, MIC = 1 μg/mL",9.3 µg/mL
same,Trough Vancomycin Concentration achieving AUC24/MIC = 400,"[2]; 15 mg/kg q8h, body weight 20 kg, MIC = 2 μg/mL",37.6 µg/mL
same,Trough Vancomycin Concentration achieving AUC24/MIC = 400,"[2]; 15 mg/kg q8h, body weight 40 kg, MIC = 0.5 μg/mL",2.0 µg/mL
same,Trough Vancomycin Concentration achieving AUC24/MIC = 400,"[2]; 15 mg/kg q8h, body weight 40 kg, MIC = 1 μg/mL",8.0 µg/mL
same,Trough Vancomycin Concentration achieving AUC24/MIC = 400,"[2]; 15 mg/kg q8h, body weight 40 kg, MIC = 2 μg/mL",32.4 µg/mL
same,Trough Vancomycin Concentration achieving AUC24/MIC = 400,"[2]; 20 mg/kg q6h, body weight 10 kg, MIC = 0.5 μg/mL",1.8 µg/mL
same,Trough Vancomycin Concentration achieving AUC24/MIC = 400,"[2]; 20 mg/kg q6h, body weight 10 kg, MIC = 1 μg/mL",7.2 µg/mL
same,Trough Vancomycin Concentration achieving AUC24/MIC = 400,"[2]; 20 mg/kg q6h, body weight 10 kg, MIC = 2 μg/mL",29.3 µg/mL
same,Trough Vancomycin Concentration achieving AUC24/MIC = 400,"[2]; 20 mg/kg q6h, body weight 20 kg, MIC = 0.5 μg/mL",1.6 µg/mL
same,Trough Vancomycin Concentration achieving AUC24/MIC = 400,"[2]; 20 mg/kg q6h, body weight 20 kg, MIC = 1 μg/mL",6.6 µg/mL
same,Trough Vancomycin Concentration achieving AUC24/MIC = 400,"[2]; 20 mg/kg q6h, body weight 20 kg, MIC = 2 μg/mL",26.8 µg/mL
same,Trough Vancomycin Concentration achieving AUC24/MIC = 400,"[2]; 20 mg/kg q6h, body weight 40 kg, MIC = 0.5 μg/mL",1.4 µg/mL
same,Trough Vancomycin Concentration achieving AUC24/MIC = 400,"[2]; 20 mg/kg q6h, body weight 40 kg, MIC = 1 μg/mL",5.6 µg/mL
same,Trough Vancomycin Concentration achieving AUC24/MIC = 400,"[2]; 20 mg/kg q6h, body weight 40 kg, MIC = 2 μg/mL",22.6 µg/mL
same,Trough Vancomycin Concentration achieving AUC24/MIC = 400,"[2]; 30 mg/kg q8h, body weight 10 kg, MIC = 0.5 μg/mL",2.3 µg/mL
same,Trough Vancomycin Concentration achieving AUC24/MIC = 400,"[2]; 30 mg/kg q8h, body weight 10 kg, MIC = 1 μg/mL",9.3 µg/mL
same,Trough Vancomycin Concentration achieving AUC24/MIC = 400,"[2]; 30 mg/kg q8h, body weight 10 kg, MIC = 2 μg/mL",37.6 µg/mL
same,Trough Vancomycin Concentration achieving AUC24/MIC = 400,"[2]; 30 mg/kg q8h, body weight 20 kg, MIC = 0.5 μg/mL",2.0 µg/mL
same,Trough Vancomycin Concentration achieving AUC24/MIC = 400,"[2]; 30 mg/kg q8h, body weight 20 kg, MIC = 1 μg/mL",8.0 µg/mL
same,Trough Vancomycin Concentration achieving AUC24/MIC = 400,"[2]; 30 mg/kg q8h, body weight 20 kg, MIC = 2 μg/mL",32.4 µg/mL
same,Trough Vancomycin Concentration achieving AUC24/MIC = 400,"[2]; 30 mg/kg q8h, body weight 40 kg, MIC = 0.5 μg/mL",1.5 µg/mL
same,Trough Vancomycin Concentration achieving AUC24/MIC = 400,"[2]; 30 mg/kg q8h, body weight 40 kg, MIC = 1 μg/mL",6.1 µg/mL
same,Trough Vancomycin Concentration achieving AUC24/MIC = 400,"[2]; 30 mg/kg q8h, body weight 40 kg, MIC = 2 μg/mL",24.7 µg/mL
same,Exponent of trough concentration,"[2]; AUC24 regression equation, (Ctr/7)^x, 365 troughs, 238 subjects",0.495
same,Additive shift for dose frequency < 8 hours,[2]; [4],54.9
same,Slope of (DOSE [mg] - 500),[2]; [4],0.0894
same,Vc reported by Downes et al,[3],2.59 L
same,Vp reported by Downes et al,[3],5.74 L
